Measured values taken from US12569170B2, “Paramagnetic sodium NMR macrocyclic-based biosensors, and associated methods” (Yale University, priority 2021, dated 2026).
“And” between values parts separate entries of the source, which are not always exact repeats. Equal values may be shown once.

Legend:
[1] = doses presently being used for preclinical studies; cited from earlier work
[2] = Effect of cation competition on ^23Na chemical shift and linewidth in vitro; assay type: physicochemical; settings: for ^23Na chemical shift / ^23Na linewidth: 150 mM NaCl
Protocol: FIGS. 13A-13C depicts effect of cation competition on ^23Na chemical shift and linewidth induced by 2 mM TmDOTP^5−. (FIG. 13A)^23Na NMR spectra for 150 mM NaCl solutions containing 2 mM TmDOTP^5− alone, and in the presence of 2 mM Ca^2+, 2 mM Mg^2+, 10 mM K^+, and all three of these ions. Ca^2+, Mg^2+, and K^+ were introduced as the salts CaCl2, MgCl2, and KBr, respectively. These concentrations were all chosen to represent physiological concentrations in the interstitial space. […] Chemical shift ranged between 2.433 ppm (FIG. 13B, alone) and 2.352 ppm (FIG. 13B, all), representing only a 3% change in the presence of all competing cations. Linewidth ranged between 0.2433 ppm (FIG. 13C, alone) and 0.2285 ppm (FIG. 13C, all), representing only a 6% change in the presence of all competing cations.
Upon translation of the present in vitro results to in vivo situations, certain confounding factors must be addressed. In the interstitial space, there are additional cations such as calcium (Ca^2+), magnesium (Mg^2+) and K^+ which will also bind to anionic contrast agents like TmDOTP^5−. However, physiologically their concentrations are low compared to Na^+. […] Additionally, there is a contribution to the chemical shift from bulk magnetic susceptibility (BMS) changes brought about by TmDOTP^5− in addition to the hyperfine shifts induced by interactions with Na^+. Experiments were performed on different DOTP^8− salts in phantoms parallel and perpendicular to the main magnetic field B0, and also spherical phantoms in which there was no BMS contribution. Only a small portion (˜2%) of the total chemical shift for TmDOTP^5− was due to BMS arising due to anisotropy of the paramagnetic susceptibility, and the remainder was the hyperfine shift.

[3] = In vitro ^23Na-NMR, two-compartment coaxial cylinder tube (^23Na shiftability); assay type: physicochemical
Description: The goal of these studies was to separate the total Na^+ signal (Na^+T) into distinct signals for blood (Na^+b), interstitial (Na^+e), and intracellular (Na^+i) pools (FIG. 1). The shifting mechanism induced by exogenous TmDOTP^5− and endogenous biological factors on the ^23Na chemical shift in vitro is depicted in FIGS. 1C-1G. A two-compartment coaxial cylinder NMR tube setup in vitro was used to mimic Na^+ in interstitial/intracellular pools. The inner (smaller) and outer (larger) compartments both contained 150 mM NaCl while the latter also contained TmDOTP^5− at various concentrations. The setup was subjected to several different pH and temperature conditions. The inner compartment, which lacked TmDOTP^5− to represent the intracellular space in vivo, produced a small but unshifted ^23Na peak at 0 ppm. The larger ^23Na peak was shifted downfield by TmDOTP^5−, with the difference in peak integrals stemming from different compartment volumes.
The ^23Na shiftability for TmDOTP^5− s[paraCA^n−]=[…] was 11.1×larger than the shiftability for pH (spH=0.25 ppm/pH unit) and 92.3×larger than the shiftability for temperature (sT=0.03 ppm/° C.). This means that addition of 1.1 mM TmDOTP^5− would induce a ˜3 ppm shift in the ^23Na peak. Conversely, a maximal change of 0.4 in pH units, which is observed between normal and tumor tissues, would induce only a ˜0.1 ppm ^23Na shift. A similar ^23Na shift by temperature would require a 3.3° C. change, which is unlikely in vivo. Based on the pH and temperature ranges observed in vivo (including tumors), the effect from [TmDOTP^5−] dominates the ^23Na chemical shift by 95%. Therefore, [TmDOTP^5−] is several orders of magnitude more sensitive in shifting the ^23Na resonance than typical in vivo factors. Furthermore, the ^23Na shiftability arising from [TmDOTP^5−] and pH/temperature effects is much larger than T2 broadening from TmDOTP^5− (FIG. 1C). […] (FIGS. 1D-1E). However, for in vivo scenarios the ranges shown for pH (2 full pH units) and temperature (15° C. interval) are overestimated, and where [Na^+] far exceeds [TmDOTP^5−] based on prior experiments. In blood and interstitial spaces, [Na^+] is ˜30-100×greater than [TmDOTP^5−].
In vitro experiments were performed using a 2-compartment coaxial cylindrical 7-inch NMR tube setup from WilmadLabGlass (Vineland, NJ, USA). One compartment contained 150 mM NaCl and the other contained the same but with varying amounts of TmDOTP^5− (1-10 mM) and 10% v/v ^2H2O to lock the spectrometer frequency using the ^2H2O signal. NaCl and ^2H2O were purchased from Sigma-Aldrich (St. Louis, MO, USA), and TmDOTP^5− was purchased as the sodium salt Na5TmDOTP from Macrocyclics (Plano, TX, USA). The 5-mm opening of the NMR tube permitted an insert (the inner compartment) whose 50-mm-long tip had inner and outer diameters of 1.258 and 2.020 mm, respectively. The outer-to-inner volume ratio between the two compartments was 8.6. The geometry of the setup allowed 645 μL total in the outer compartment to fill around the tip. Each solution was pH-adjusted using HCl or KOH to give 5 different pH values.
^23Na-NMR spectra were collected on a Bruker Avance III HD 500 MHz vertical-bore spectrometer (Bruker, Billerica, MA, USA) interfaced with Bruker TopSpin v2.1 software. A Bruker 500 MHz TBO liquid broadband probe with z-gradient was used in all frequencies, and an inner coil was used to detect X-nuclei. A single ^23Na square pulse (50 μs) was used to globally excite the volume of interest (repetition time TR=275 ms) collecting 2048 free induction decay (FID) points in the time domain with an acquisition time taq=38.9 ms, averaged 4096 times. Each set of scans was repeated at a series of temperatures: 27, 30, 34, 37, and 40° C. Spectra were analyzed using 10 Hz line broadening (for improved delineation of major peaks and reduction of baseline noise) and manual zeroth- and first-order phasing. […]

[4] = 2 mM TmDOTP^5− with 2 mM Ca^2+, 2 mM Mg^2+ and 10 mM K^+ (all)

Q: With `O=P([O-])([O-])CN1CCN(CP(=O)([O-])[O-])CCN(CP(=O)([O-])[O-])CCN(CP(=O)([O-])[O-])CC1.[Na+].[Na+].[Na+].[Na+].[Na+].[Tm+3]` [TmDOTP^5−, sodium thulium (III) 1,4,7,10-tetraazacyclododecane-1,4,7,10-tetrakis(methylenephosphonate)] as the compound, how does the toxicity [1] read?
A: non-toxic

Q: And the “change in ^23Na chemical shift in the presence of all competing cations” value ([2]; 2 mM TmDOTP^5−, alone vs all)?
A: 3%

Q: And the “change in ^23Na linewidth in the presence of all competing cations” value ([2]; 2 mM TmDOTP^5−, alone vs all)?
A: 6%

Q: What about the “^23Na chemical shift” value ([2]; 2 mM TmDOTP^5− alone) of the same compound?
A: 2.433 ppm

Q: And the “^23Na linewidth” value ([2]; 2 mM TmDOTP^5− alone)?
A: 0.2433 ppm

Q: What about the “^23Na chemical shift” value [2, 4] of the same compound?
A: 2.352 ppm

Q: What about the “^23Na linewidth” value [2, 4] of the same compound?
A: 0.2285 ppm

Q: And the “changes in ^23Na chemical shift and linewidth by cationic competition” value ([2]; typical in vivo concentrations of Ca^2+, Mg^2+, K^+)?
A: negligible changes

Q: And the “^23Na shifts caused by in vivo agent concentrations” value ([3]; 1-2 mM TmDOTP^5−)?
A: 2.8-5.5 ppm

Q: And the “shift in the ^23Na peak induced by addition of agent” value ([3]; addition of 1.1 mM TmDOTP^5−)?
A: ~3 ppm

Q: And the “^23Na shiftability for pH (spH)” value ([3]; in vitro, 150 mM NaCl with TmDOTP^5−)?
A: 0.25 ppm/pH unit

Q: What about the “^23Na shiftability for temperature (sT)” value ([3]; in vitro, 150 mM NaCl with TmDOTP^5−, 27-40° C.) of the same compound?
A: 0.03 ppm/° C.

Q: What about the “^23Na shift variation caused by pH” value ([3]; maximal change of 0.4 pH units between normal and tumor tissue) of the same compound?
A: ~0.1 ppm

Q: And the “shiftability for TmDOTP^5− relative to shiftability for pH” value ([3]; ratio)?
A: 11.1 ×

Q: What about the “shiftability for TmDOTP^5− relative to shiftability for temperature” value ([3]; ratio) of the same compound?
A: 92.3 ×

Q: And the “^23Na shift variation caused by temperature” value ([3]; temperature difference ~0.5° C.)?
A: 0.015 ppm

Q: And the “share of the ^23Na chemical shift dominated by [TmDOTP^5−] effect” value ([3]; versus pH and temperature ranges observed in vivo)?
A: 95% and 96-98%
